Results on one compound are retold here after patent US20260069596A1 (Cardiff Oncology, Inc., priority 2024, published 2026).

The conditions of series [1]: cited from earlier work.
Series [2] deals with RAS^WT colorectal cancer patient derived xenograft (PDX) models. As to the kind of experiment: Example 2: antitumor activity in RAS^WT colorectal cancer PDX models. In kind it is in vivo, mice. How it is done: Tumor volumes (TV) were measured twice a week, and % tumor volume change (TVC) from baseline was calculated as follows: (TVi/TV0−1)×100. Tumor stasis defined as TVC between 0 and 20%, and tumor regression as TVC less than 0% at last measurement. Results are presented as mean±SEM.

Series [3] relates to advanced/metastatic solid tumors. Particulars: single agent; cited from earlier work.
For series [4], the target named is T1, CYP1A2 (Homo sapiens, UniProt P05177).
T1 construct: was investigated using human liver microsomes; from tissue; host or cells: human liver microsomes
T1 sequence (P05177 1-516): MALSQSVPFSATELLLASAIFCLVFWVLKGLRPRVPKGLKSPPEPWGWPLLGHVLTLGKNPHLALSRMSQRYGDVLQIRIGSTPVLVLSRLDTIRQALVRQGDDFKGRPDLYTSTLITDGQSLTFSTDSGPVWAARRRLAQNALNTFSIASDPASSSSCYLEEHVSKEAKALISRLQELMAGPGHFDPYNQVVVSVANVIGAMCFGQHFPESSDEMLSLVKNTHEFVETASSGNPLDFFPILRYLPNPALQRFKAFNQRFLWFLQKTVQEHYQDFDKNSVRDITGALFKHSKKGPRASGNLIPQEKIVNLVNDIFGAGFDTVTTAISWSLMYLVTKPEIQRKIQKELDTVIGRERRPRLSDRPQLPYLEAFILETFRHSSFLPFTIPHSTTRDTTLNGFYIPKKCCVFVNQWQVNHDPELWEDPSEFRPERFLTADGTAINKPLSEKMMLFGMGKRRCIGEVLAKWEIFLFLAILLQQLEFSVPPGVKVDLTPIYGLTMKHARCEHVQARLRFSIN
The following applies: human liver microsomes; cited from earlier work. (In general: Liver microsomes are a subcellular fraction often used to study metabolism.)

The structures appear in SMILES notation. Entries after “also recorded” stand apart in the source; their conditions may differ.

With `CN1CCN(c2ccc(OC(F)(F)F)c(Nc3ncc4c(n3)-c3c(c(C(N)=O)nn3CCO)CC4)c2)CC1` [Onvansertib, 1-(2-hydroxyethyl)-8-{[5-(4-methylpiperazin-1-yl)-2-(trifluoromethoxy)phenyl]amino}-4,5-dihydro-1H-pyrazolo[4,3-h]quinazoline-3-carboxamide], the DLTs entry in series [1] (doses of 6, 12, and 24 mg/m^2/day, oral, 5 consecutive days every 3 weeks) is given as “No DLTs”. The “primary dose-limiting toxicities / primary toxicities” value in series [1] (phase I, patients with advanced/metastatic solid tumors) was “neutropenia and thrombocytopenia; also recorded: thrombocytopenia and neutropenia”. Also, in series [1] (reversible toxicities), the “recovery time of hematologic toxicities” value was at most 3 weeks. The “models with tumor stasis or regression” value in series [2] (7 PDXs sensitive to cetuximab) is given as “five”. Also, in series [2] (PDX models sensitive to cetuximab, 71%), the “models with potent antitumor activity” value is 5/7. Further, in series [2] (all 20 models), the “models with tumor regression (TVC less than 0%)” value is listed as 11 models; the “models with tumor stasis (TVC between 0 and 20%)” value is 3 models. Further, the “best observed treatment response” value in series [3] is “stable disease”. For the same compound, the “inhibitory effect against CYP1A2” value in series [4] is recorded as “No significant inhibitory effects”.
